PubChem BioAssay AID1963837 (Molecular Pharmacology Branch, DTP, NCI, 2024)

Test system: 843126-344-R-J1-PDC complex spheroid viability
Assay: Anticancer human tumor 843126-344-R-J1-PDC patient-derived melanoma cell line growth inhibition [POLQ]
Conditions: for IC50: curve of first compound; for viability, T/C: stronger effect = lower value
In short: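 Growth inhibition in 3D: complex spheroids (tumor PDC, HUVEC, MSC) treated with POLQ inhibitor combinations; where Cmax unknown, highest tested concentration 10 microM, except SN-38 at 1 microM.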

[1] = second compound 0.0316 µM, first compound 0.0316 µM
[2] = second compound 0.0316 µM, first compound 0.1 µM
[3] = second compound 0.0316 µM, first compound 0.316 µM
[4] = second compound 0.0316 µM, first compound 1 µM
[5] = second compound 0.0316 µM, first compound 3.16 µM
[6] = second compound 0.0316 µM, first compound 10 µM
[7] = second compound 0.1 µM, first compound 0.0316 µM
[8] = second compound 0.1 µM, first compound 0.1 µM
[9] = second compound 0.1 µM, first compound 0.316 µM
[10] = second compound 0.1 µM, first compound 1 µM
[11] = second compound 0.1 µM, first compound 3.16 µM
[12] = second compound 0.1 µM, first compound 10 µM
[13] = second compound 0.316 µM, first compound 0.0316 µM
[14] = second compound 0.316 µM, first compound 0.1 µM
[15] = second compound 0.316 µM, first compound 0.316 µM
[16] = second compound 0.316 µM, first compound 1 µM
[17] = second compound 0.316 µM, first compound 3.16 µM
[18] = second compound 0.316 µM, first compound 10 µM
[19] = second compound 1 µM, first compound 0.0316 µM
[20] = second compound 1 µM, first compound 0.1 µM
[21] = second compound 1 µM, first compound 0.316 µM
[22] = second compound 1 µM, first compound 1 µM
[23] = second compound 1 µM, first compound 3.16 µM
[24] = second compound 1 µM, first compound 10 µM
[25] = second compound 3.16 µM, first compound 0.0316 µM
[26] = second compound 3.16 µM, first compound 0.1 µM
[27] = second compound 3.16 µM, first compound 0.316 µM
[28] = second compound 3.16 µM, first compound 1 µM
[29] = second compound 3.16 µM, first compound 3.16 µM
[30] = second compound 3.16 µM, first compound 10 µM
[31] = second compound 10 µM, first compound 0.0316 µM
[32] = second compound 10 µM, first compound 0.1 µM
[33] = second compound 10 µM, first compound 0.316 µM
[34] = second compound 10 µM, first compound 1 µM
[35] = second compound 10 µM, first compound 3.16 µM
[36] = second compound 10 µM, first compound 10 µM
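Throughout, for viability, T/C: spheroids exposed to drugs for seven days before readout.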

CC1COCCN1c1cc(-c2ccnn2C)c2ccnc(-c3ccn[nH]3)c2n1 (centres undefined) + Cc1cccc(N(C)C(=O)C2C(O)CCN2c2nc(C)cc(C(F)(F)F)c2C#N)c1
IC50 (second compound 0.0316 µM): 1970 nM
IC50 (second compound 0.1 µM): 1300 nM
IC50 (second compound 0.316 µM): 2070 nM
IC50 (second compound 1 µM): 1580 nM
IC50 (second compound 3.16 µM): 1660 nM
IC50 (second compound 10 µM): 1870 nM
viability, T/C [1]: 85.6%
viability, T/C [2]: 77.7%
viability, T/C [3]: 63.8%
viability, T/C [4]: 55.1%
viability, T/C [5]: 50.3%
viability, T/C [6]: 32.7%
viability, T/C [7]: 80.9%
viability, T/C [8]: 67.5%
viability, T/C [9]: 64.2%
viability, T/C [10]: 52.6%
viability, T/C [11]: 42.8%
viability, T/C [12]: 28.4%
viability, T/C [13]: 87.2%
viability, T/C [14]: 92.2%
viability, T/C [15]: 64.7%
viability, T/C [16]: 63.9%
viability, T/C [17]: 43%
viability, T/C [18]: 36.7%
viability, T/C [19]: 88.1%
viability, T/C [20]: 85%
viability, T/C [21]: 68.8%
viability, T/C [22]: 55.6%
viability, T/C [23]: 42.6%
viability, T/C [24]: 33.3%
viability, T/C [25]: 89%
viability, T/C [26]: 82.2%
viability, T/C [27]: 68.7%
viability, T/C [28]: 54.2%
viability, T/C [29]: 44.8%
viability, T/C [30]: 35%
viability, T/C [31]: 82.5%
viability, T/C [32]: 83.5%
viability, T/C [33]: 66%
viability, T/C [34]: 57.6%
viability, T/C [35]: 45.1%
viability, T/C [36]: 33.1%

CC1COCCN1c1cc(C2(S(C)(=N)=O)CC2)nc(-c2ccnc3[nH]ccc23)n1 (centres undefined) + Nc1ccc(C#CCN(C(=O)Cc2ncc(C(F)(F)F)cc2C(F)(F)F)c2ccc(F)cc2)nn1
IC50 (second compound 0.0316 µM): > 10000 nM
IC50 (second compound 0.1 µM): > 10000 nM
IC50 (second compound 0.316 µM): 9880 nM
IC50 (second compound 1 µM): > 10000 nM
IC50 (second compound 3.16 µM): > 10000 nM
IC50 (second compound 10 µM): > 10000 nM
viability, T/C [1]: 101%
viability, T/C [2]: 84.8%
viability, T/C [3]: 86.6%
viability, T/C [4]: 76.9%
viability, T/C [5]: 72.7%
viability, T/C [6]: 51.6%
viability, T/C [7]: 84.8%
viability, T/C [8]: 90.2%
viability, T/C [9]: 88.8%
viability, T/C [10]: 103%
viability, T/C [11]: 76.1%
viability, T/C [12]: 55.8%
viability, T/C [13]: 88.4%
viability, T/C [14]: 92.1%
viability, T/C [15]: 82.3%
viability, T/C [16]: 77.5%
viability, T/C [17]: 70%
viability, T/C [18]: 49.2%
viability, T/C [19]: 96.2%
viability, T/C [20]: 92.8%
viability, T/C [21]: 86.3%
viability, T/C [22]: 90.5%
viability, T/C [23]: 76.3%
viability, T/C [24]: 51.8%
viability, T/C [25]: 89.9%
viability, T/C [26]: 84%
viability, T/C [27]: 89%
viability, T/C [28]: 86.1%
viability, T/C [29]: 69.8%
viability, T/C [30]: 53.8%
viability, T/C [31]: 94.6%
viability, T/C [32]: 84%
viability, T/C [33]: 81.5%
viability, T/C [34]: 75.1%
viability, T/C [35]: 65.2%
viability, T/C [36]: 51.8%
